Reference: ChEMBL document CHEMBL4368924, “Synthesis and biological evaluation of nitroxide labeled pyrimidines as Aurora kinase inhibitors” (Bioorg Med Chem Lett, 2019)
Activity calls are given as the source filed them. The rule behind the calls is not given here.

What was measured:
HeLa [1] = experiment: Antiproliferative activity against human HeLa cells after 48 hrs by MTT assay; format: functional, cell-based
A549 = experiment: Antiproliferative activity against human A549 cells after 48 hrs by MTT assay; format: functional, cell-based
HepG2 = experiment: Antiproliferative activity against human HepG2 cells after 48 hrs by MTT assay; format: functional, cell-based
LoVo = experiment: Antiproliferative activity against human LoVo cells after 48 hrs by MTT assay; format: functional, cell-based
[2] = biological target: T1, Aurora kinase A (Homo sapiens) (UniProt O14965); experiment: Inhibition of aurora A (unknown origin) using Kemptide as substrate at 1 uM after 60 mins by ADP-Glo luminescence assay relative to control
T1 sequence (whole entry): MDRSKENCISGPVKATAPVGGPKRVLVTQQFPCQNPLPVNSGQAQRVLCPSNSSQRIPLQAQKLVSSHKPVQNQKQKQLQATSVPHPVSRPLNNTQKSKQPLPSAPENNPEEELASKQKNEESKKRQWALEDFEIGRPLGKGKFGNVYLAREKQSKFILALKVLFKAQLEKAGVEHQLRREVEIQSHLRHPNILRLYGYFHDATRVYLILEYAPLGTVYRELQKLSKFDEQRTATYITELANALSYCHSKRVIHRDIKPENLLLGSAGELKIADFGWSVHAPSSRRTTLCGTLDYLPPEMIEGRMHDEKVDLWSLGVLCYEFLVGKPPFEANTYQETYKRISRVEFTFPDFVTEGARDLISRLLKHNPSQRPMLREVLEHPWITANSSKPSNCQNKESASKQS

Aurora kinase B [3] = biological target: T2, Aurora kinase B (Homo sapiens, UniProt Q96GD4); experiment: Inhibition of aurora B (unknown origin) using Kemptide as substrate at 1 uM after 60 mins by ADP-Glo luminescence assay relative to control
[4] = biological target: RAC-alpha serine/threonine-protein kinase (Homo sapiens) (UniProt P31749); experiment: Inhibition of AKT (unknown origin) using Kemptide as substrate at 1 uM after 60 mins by ADP-Glo luminescence assay relative to control
Homo sapiens = species on record: Homo sapiens; experiment: Inhibition of PI3K (unknown origin) using Kemptide as substrate at 1 uM after 60 mins by ADP-Glo luminescence assay relative to control
[5] = biological target: Activin receptor type-1-like (Homo sapiens) (UniProt P37023); experiment: Inhibition of ALK1 (unknown origin) using Kemptide as substrate at 1 uM after 60 mins by ADP-Glo luminescence assay relative to control
[6] = biological target: Vascular endothelial growth factor receptor 2 (Homo sapiens) (UniProt P35968); experiment: Inhibition of VEGFR2 (unknown origin) using Kemptide as substrate at 1 uM after 60 mins by ADP-Glo luminescence assay relative to control
Aurora kinase A = biological target: T3, Aurora kinase A (Homo sapiens, UniProt O14965); experiment: Inhibition of aurora A (unknown origin) using Kemptide as substrate after 60 mins by ADP-Glo luminescence assay
T3 sequence (O14965 whole entry): T1 sequence (whole entry)

Aurora kinase B [7] = biological target: T2, Aurora kinase B; experiment: Inhibition of aurora B (unknown origin) using Kemptide as substrate after 60 mins by ADP-Glo luminescence assay
[8] = biological target: T1, Aurora kinase A (Homo sapiens); experiment: Inhibition of aurora A phosphorylation at Thr288 residues in human HeLa cells after 24 hrs by immunofluorescence assay; format: cell-based
Aurora kinase B [9] = biological target: T2, Aurora kinase B; experiment: Inhibition of aurora B phosphorylation at Thr232 residues in human HeLa cells after 24 hrs by immunofluorescence assay; format: cell-based
Aurora kinase B [10] = biological target: T2, Aurora kinase B; experiment: Inhibition of aurora B in human HeLa cells assessed as decrease in HisH3 phosphorylation at ser10 residues after 24 hrs by Western blot analysis; format: cell-based
[11] = biological target: T1, Aurora kinase A (Homo sapiens); experiment: Inhibition of aurora A in human HeLa cells assessed as decrease in Eg5 level after 24 hrs by Western blot analysis; format: cell-based
[12] = biological target: T1, Aurora kinase A (Homo sapiens); experiment: Inhibition of aurora A in human HeLa cells assessed as decrease in Bora level after 24 hrs by Western blot analysis; format: cell-based
[13] = biological target: T1, Aurora kinase A (Homo sapiens); experiment: Inhibition of aurora A in human HeLa cells assessed as decrease in TPX2 level after 24 hrs by Western blot analysis; format: cell-based
HeLa [14] = experiment: Induction of morphological changes in human HeLa cells assessed as disrupting mitotic spindle formation at 5 uM after 24 hrs by DAPI-staining based immunofluorescence assay; format: functional, cell-based

T2 sequence (Q96GD4 whole entry): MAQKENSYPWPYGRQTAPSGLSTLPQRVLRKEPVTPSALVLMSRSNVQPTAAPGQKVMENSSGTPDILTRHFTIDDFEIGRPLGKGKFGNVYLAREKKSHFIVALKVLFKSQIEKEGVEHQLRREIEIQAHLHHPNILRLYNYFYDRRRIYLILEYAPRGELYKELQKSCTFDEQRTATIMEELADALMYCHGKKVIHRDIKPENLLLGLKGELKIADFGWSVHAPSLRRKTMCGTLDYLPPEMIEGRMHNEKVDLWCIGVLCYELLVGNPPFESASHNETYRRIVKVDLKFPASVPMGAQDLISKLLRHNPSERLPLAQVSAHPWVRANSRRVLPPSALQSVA
Sequence of Activin receptor type-1-like (Homo sapiens) (P37023 whole entry): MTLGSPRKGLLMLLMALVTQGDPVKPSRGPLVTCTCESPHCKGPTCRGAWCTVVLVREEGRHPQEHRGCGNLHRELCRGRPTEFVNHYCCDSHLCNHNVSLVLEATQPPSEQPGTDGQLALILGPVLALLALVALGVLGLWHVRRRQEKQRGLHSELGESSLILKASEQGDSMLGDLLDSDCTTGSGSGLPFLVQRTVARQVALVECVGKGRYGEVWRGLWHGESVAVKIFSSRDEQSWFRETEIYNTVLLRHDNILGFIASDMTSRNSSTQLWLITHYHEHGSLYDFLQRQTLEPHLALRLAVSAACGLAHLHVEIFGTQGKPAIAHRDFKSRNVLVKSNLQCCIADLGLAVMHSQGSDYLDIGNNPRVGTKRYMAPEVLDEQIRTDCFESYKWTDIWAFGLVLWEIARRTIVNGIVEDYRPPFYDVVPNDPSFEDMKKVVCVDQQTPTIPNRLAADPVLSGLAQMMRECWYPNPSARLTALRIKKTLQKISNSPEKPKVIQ
Sequence of Vascular endothelial growth factor receptor 2 (Homo sapiens) (P35968 whole entry): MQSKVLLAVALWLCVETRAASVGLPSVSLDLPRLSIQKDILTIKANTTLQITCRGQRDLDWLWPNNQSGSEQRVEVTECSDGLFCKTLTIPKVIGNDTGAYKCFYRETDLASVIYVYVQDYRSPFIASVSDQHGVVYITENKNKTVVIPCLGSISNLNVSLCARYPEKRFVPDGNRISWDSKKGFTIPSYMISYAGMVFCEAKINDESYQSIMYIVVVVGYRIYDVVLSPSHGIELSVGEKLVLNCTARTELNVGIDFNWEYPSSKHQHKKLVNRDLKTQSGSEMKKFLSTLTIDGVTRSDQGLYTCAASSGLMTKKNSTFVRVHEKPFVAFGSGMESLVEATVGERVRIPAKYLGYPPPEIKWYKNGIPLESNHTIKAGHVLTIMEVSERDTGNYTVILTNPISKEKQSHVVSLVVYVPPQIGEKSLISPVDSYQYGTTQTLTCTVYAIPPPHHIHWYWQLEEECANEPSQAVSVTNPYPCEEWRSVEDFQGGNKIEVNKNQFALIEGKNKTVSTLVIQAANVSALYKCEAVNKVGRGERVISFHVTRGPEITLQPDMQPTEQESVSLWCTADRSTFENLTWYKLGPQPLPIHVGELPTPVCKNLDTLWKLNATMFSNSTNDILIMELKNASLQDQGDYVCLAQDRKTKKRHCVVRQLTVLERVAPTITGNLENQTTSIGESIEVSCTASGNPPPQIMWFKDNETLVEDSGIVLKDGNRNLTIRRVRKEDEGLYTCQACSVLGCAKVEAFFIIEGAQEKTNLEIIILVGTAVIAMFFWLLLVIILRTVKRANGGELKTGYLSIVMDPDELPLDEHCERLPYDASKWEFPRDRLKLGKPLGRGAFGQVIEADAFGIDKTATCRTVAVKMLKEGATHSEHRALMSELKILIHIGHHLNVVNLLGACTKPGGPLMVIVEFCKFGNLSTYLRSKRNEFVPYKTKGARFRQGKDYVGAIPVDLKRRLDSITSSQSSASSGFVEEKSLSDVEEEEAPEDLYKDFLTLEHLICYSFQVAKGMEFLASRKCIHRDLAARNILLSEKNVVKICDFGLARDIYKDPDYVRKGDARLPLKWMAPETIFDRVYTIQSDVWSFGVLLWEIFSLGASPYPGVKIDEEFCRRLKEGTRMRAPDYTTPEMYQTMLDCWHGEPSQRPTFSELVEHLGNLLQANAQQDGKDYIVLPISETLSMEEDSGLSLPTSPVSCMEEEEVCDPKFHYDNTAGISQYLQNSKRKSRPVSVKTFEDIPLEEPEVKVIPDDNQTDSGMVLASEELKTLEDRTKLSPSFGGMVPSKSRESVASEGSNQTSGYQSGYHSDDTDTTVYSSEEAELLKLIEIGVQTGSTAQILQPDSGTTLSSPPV
Sequence of RAC-alpha serine/threonine-protein kinase (Homo sapiens) (P31749 whole entry): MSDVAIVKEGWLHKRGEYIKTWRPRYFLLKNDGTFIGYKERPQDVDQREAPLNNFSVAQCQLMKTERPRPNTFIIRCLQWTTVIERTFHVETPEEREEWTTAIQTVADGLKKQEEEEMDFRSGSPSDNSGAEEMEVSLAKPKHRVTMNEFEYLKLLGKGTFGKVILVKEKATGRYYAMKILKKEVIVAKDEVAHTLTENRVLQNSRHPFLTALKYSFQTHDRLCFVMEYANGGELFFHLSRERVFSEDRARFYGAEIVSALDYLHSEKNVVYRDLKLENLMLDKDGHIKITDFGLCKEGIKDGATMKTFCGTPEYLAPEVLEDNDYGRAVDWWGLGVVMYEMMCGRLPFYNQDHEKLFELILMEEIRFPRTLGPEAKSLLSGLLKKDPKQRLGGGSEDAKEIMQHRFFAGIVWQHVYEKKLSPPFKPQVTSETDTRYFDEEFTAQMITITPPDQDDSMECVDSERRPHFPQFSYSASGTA

Row | Structure (SMILES) | IC50 (HeLa [1]; hela) | IC50 (A549; a549) | IC50 (HepG2; hepg2) | IC50 (LoVo; lovo) | further results
1 | Cc1cc(Nc2nc(Nc3ccc(C(=O)NC4CC(C)(C)N([O])C(C)(C)C4)cc3)ncc2F)n[nH]1 | 11.2 µM | 2.12 µM | 10.8 µM | 42.2 µM | –
2 | CCCCOC(=O)Cc1cc(Nc2nc(Nc3ccc(C(=O)NC4CC(C)(C)N([O])C(C)(C)C4)cc3)ncc2F)n[nH]1 | – | – | – | – | IC50 (HeLa [1]; Homo sapiens, HeLa, 48 h): 2.72 µM; IC50 (A549; Homo sapiens, A549, 48 h): 0.89 µM; IC50 (HepG2; Homo sapiens, HepG2, 48 h): 5.73 µM; IC50 (LoVo; Homo sapiens, LoVo, 48 h): 11.4 µM; inhibition [2]: 84.5%; inhibition (Aurora kinase B [3]): 90.5%; inhibition [4]: 0%; inhibition (Homo sapiens): 7%; inhibition [5]: 33.5%; inhibition [6]: 35.5%; IC50 (Aurora kinase A): 0.0093 µM; IC50 (Aurora kinase B [7]): 0.0028 µM; inhibition [8]: Dose-dependent effect; inhibition (Aurora kinase B [9]): Dose-dependent effect; inhibition (Aurora kinase B [10]): Dose-dependent effect; inhibition [11]: Dose-dependent effect; inhibition [12]: Dose-dependent effect; inhibition [13]: Dose-dependent effect; Activity (HeLa [14]): Active
3 | CC1(C)CC(NC(=O)c2ccc(Nc3ncc(F)c(N4CCOCC4)n3)cc2)CC(C)(C)N1[O] | 14.3 µM | 13.2 µM | 22.6 µM | 35.5 µM | –
4 | Cc1cc(Nc2nc(Nc3ccc(C(=O)NC4CC(C)(C)N([O])C(C)(C)C4)cc3)ncc2[N+](=O)[O-])n[nH]1 | 29.1 µM | 15.3 µM | 37.5 µM | > 100 µM | –
5 | CCOC(=O)Cc1csc(Nc2nc(Nc3ccc(C(=O)NC4CC(C)(C)N([O])C(C)(C)C4)cc3)ncc2[N+](=O)[O-])n1 | 12 µM | 1.04 µM | 26.4 µM | 27 µM | –
6 | CCCCOC(=O)Cc1csc(Nc2nc(Nc3ccc(C(=O)NC4CC(C)(C)N([O])C(C)(C)C4)cc3)ncc2F)n1 | 5.23 µM | 2.31 µM | 11.5 µM | 21.9 µM | –
7 | Cc1cc(Nc2nc(Nc3ccc(C(=O)NC4CC(C)(C)N([O])C(C)(C)C4)cc3)ncc2F)no1 | – | – | – | – | IC50 (HeLa [1]; Homo sapiens, HeLa, 48 h): 5.68 µM; IC50 (A549; Homo sapiens, A549, 48 h): 0.88 µM; IC50 (HepG2; Homo sapiens, HepG2, 48 h): 10.8 µM; IC50 (LoVo; Homo sapiens, LoVo, 48 h): 12 µM; inhibition [2]: 69%; inhibition (Aurora kinase B [3]): 76.5%; inhibition [4]: 0%; inhibition (Homo sapiens): 18%; inhibition [5]: 39%; inhibition [6]: 57%; IC50 (Aurora kinase A): 0.0201 µM; IC50 (Aurora kinase B [7]): 0.0173 µM
8 | CCN1CCN(c2nc(Nc3ccc(C(=O)NC4CC(C)(C)N([O])C(C)(C)C4)cc3)ncc2[N+](=O)[O-])CC1 | 17.5 µM | 1.96 µM | 56.8 µM | 39.7 µM | –
9 | CC1(C)CC(NC(=O)c2ccc(Nc3ncc(F)c(NCCCNc4ccc([N+](=O)[O-])cc4)n3)cc2)CC(C)(C)N1[O] | 31.7 µM | 12.4 µM | 19.8 µM | 53.6 µM | –
10 | CC1(C)CC(NC(=O)c2ccc(Nc3ncc([N+](=O)[O-])c(N4CCN(c5ccc(F)cc5)CC4)n3)cc2)CC(C)(C)N1[O] | 25.3 µM | 10.2 µM | 13.1 µM | 27.8 µM | –
11 | Cc1cc(Nc2cc(N3CCN(C)CC3)nc(Sc3ccc(NC(=O)C4CC4)cc3)n2)n[nH]1 [TOZASERTIB] | – | – | – | – | IC50 (HeLa [1]; Homo sapiens, HeLa, 48 h): 46.2 µM; IC50 (A549; Homo sapiens, A549, 48 h): 35.8 µM; IC50 (HepG2; Homo sapiens, HepG2, 48 h): 53.3 µM; IC50 (LoVo; Homo sapiens, LoVo, 48 h): 45.3 µM
12 | CCOC(=O)c1csc(Nc2nc(Nc3ccc(C(=O)NC4CC(C)(C)N([O])C(C)(C)C4)cc3)ncc2[N+](=O)[O-])n1 | 3.79 µM | 0.74 µM | 6.87 µM | 12.5 µM | –
13 | CC1(C)CC(NC(=O)c2ccc(Nc3ncc([N+](=O)[O-])c(NC4CCCC4)n3)cc2)CC(C)(C)N1[O] | 55.6 µM | 33.2 µM | 28.7 µM | 41.2 µM | –
14 | CC(C)OC(=O)Cc1csc(Nc2nc(Nc3ccc(C(=O)NC4CC(C)(C)N([O])C(C)(C)C4)cc3)ncc2F)n1 | 11.2 µM | 3.42 µM | 13.4 µM | 11.9 µM | –
15 | Cc1cc(Nc2nc(Nc3ccc(C(=O)NC4CC(C)(C)N([O])C(C)(C)C4)cc3)ncc2[N+](=O)[O-])no1 | 7.36 µM | 1.14 µM | 7.36 µM | 26.8 µM | –
